Assays:
HCT116 cells [1] = assay: Wound healing assay; assay type: cell-based, human; details: 72 h, noncytotoxic concentrations
Procedure: Wound healing assays were carried out as previously described, with some modifications. Cells were grown to 80–90% confluency in 12-well plates, and a wound was created by dragging a plastic pipette tip across the cell surface. The remaining cells were washed three times in saline to remove cell debris before being incubated in serum-free medium and treated with the drug. Using an optical microscope, migrating cells in front of the wound were photographed after 0 and 72 h of incubation (Nikon, TS 100). ImageJ software was used to calculate the wound area (NIH, USA).

HCT116 cells [2] = assay: Colonosphere assay; assay type: cell-based, human
Procedure: HCT116 cells, at densities of 1.25 × 10^5 cells/ml, were cultured in 24-well low adhesion plates (Corning, USA) in serum-free DMEM-F12 supplemented with 20 ng/ml bFGF (PeproTech, USA), 20 ng/ml EGF (PeproTech, USA), and B27 supplement (Invitrogen, Carlsbad, CA, USA). On the following day, the cells were subjected to drug concentrations of 20, 10, 5, 2.5, and 1.25 μM. The cells were photographed using an optical microscope after 0, 24, 48, and 72 h of incubation (Leica, DMI8). Furthermore, 10 µM RXC-treated cells were stained with acridine orange/PI and analyzed by confocal microscopy or stained with anti-CD133 antibody plus YO-PRO-1 and analyzed by flow cytometry.

HCT116 cells [3] = assay: Mitochondrial transmembrane potential, rhodamine 123 flow cytometry; assay type: cell-based, human; details: 24 h, all concentrations tested
Procedure: To ensure mitochondrial transmembrane potential, the cells were stained with rhodamine 123 (5 µg/ml, Sigma-Aldrich Co.) at 37 °C for 15 min in the dark. The cells were then washed with saline and incubated in saline for 30 min in the dark at 37 °C, and cell fluorescence was determined using flow cytometry.

HCT116 cells [4] = assay: CD133 expression by flow cytometry; assay type: cell-based, human; details: 10 μM, 24 h; control 32.0%
Procedure: For cell surface protein staining, cells were washed with incubation buffer (0.5% bovine serum albumin in PBS), and then antibodies were added and incubated for 1 h at room temperature. The cells were then washed with PBS, and cell fluorescence was measured using flow cytometry. To select viable cells for quantification of CD133-positive cells, YO-PRO-1 (Sigma-Aldrich Co.) was used.

BAD KO SV40 MEF = assay: Alamar blue survival curves and cell death; assay type: cell-based, mouse; details: BAD KO SV40 MEF vs WT SV40 MEF; 10 μM, 48 h
Procedure: The Alamar blue assay was used to determine cell viability as previously described. Cells were seeded into 96-well plates at a density of 7 × 10^3 cells per well for adherent cells or 3 × 10^4 cells per well for suspended cells. The drug was added to each well after 24 h of incubation for adherent cells or immediately for suspended cells and incubated for an additional 72 h. […] Each well received 100 µM resazurin (Sigma-Aldrich Co. St. Louis, MO, United States) four (for cell lines) or 24 (for primary culture) h before the end of the incubation. A SpectraMax 190 Microplate Reader (Molecular Devices, Sunnyvale, CA, USA) was used to measure absorbance at 570 and 600 nm.
For apoptosis detection or functional assays, cell viability was quantified using annexin V-FITC/PI (FITC Annexin V Apoptosis Detection Kit I, BD Biosciences, San Jose, CA, USA) or YO-PRO-1/PI (Sigma-Aldrich Co.). The following inhibitors were used: chloroquine (autophagy inhibitor, Ipca Laboratories, Mumbai, MH, India); 3-methyladenine (autophagy inhibitor, Sigma-Aldrich Co.); and lithium chloride (Wnt activator, Sigma-Aldrich Co.).

## cis-[Ru(phen)2(xant)](PF6) [RXC]
HCT116 cells [1]
  cell migration: inhibited cell migration
HCT116 cells [2]; 10 μM, 24 h, control 47.8%
  HCT116 CD133-positive cells in colonospheres: 19.5%
HCT116 cells [2]; 1.25-20 μM, 24, 48, 72 h
  colonosphere formation: reduced colonosphere formation
HCT116 cells [3]
  mitochondrial transmembrane potential: mitochondrial depolarization
HCT116 cells [4]
  HCT116 CD133-positive cells: 10.1%
BAD KO SV40 MEF
  role of the proapoptotic protein BAD in induced cell death: BAD-independent cell death
